According to US20110130388A1, “PROPHYLACTIC OR THERAPEUTIC AGENT FOR AXIAL MYOPIA” (priority 2008, published 2011):

Assays:
[1] = system: axial length extension; settings: animal experiments; cited from earlier work
[2] = system: progress of myopia; settings: reported in Taiwan; cited from earlier work
[3] = system: chicken model of form-deprivation myopia; assay: Axial length suppression test with chicken model of form-deprivation myopia (I), intravitreal injection; assay type: in vivo, chicks (white leghorn); settings: hydroxyfasudil 20 μL intravitreally once a week (about 1 μM in the eye), four weeks after induction of myopia, N = 7, * P < 0.05 vs control
Source text: (§1) Chicks (white leghorn) 6 days of age were obtained, and one eye of each chick was covered with a mask hand-made of vinyl tape. The right eye of every chick was covered, and the left eye was used as a control. The chicks were kept under usual breeding conditions.
As a Rho kinase inhibitor, Y27632 dihydrochloride (made by Wako Pure Chemical Industries; see the above formula (I); hereinafter, abbreviated to “Y27632”) and hydroxyfasudil hydrochloride (made by SIGMA; see the above formula (III); hereinafter, abbreviated to “hydroxyfasudil”) were used. Y27632 was prepared at 50 μM in saline. Hydroxyfasudil was prepared at 1 mM in saline. To the control, saline was administered.
Into the vitreous chambers of the chicks to which myopia was being induced by the mask, Y27632 or hydroxyfasudil was injected once a week (every 7 days). Specifically, to the chicks under anesthesia with Ketalar (registered trademark) and Selactar (registered trademark), injection to a site about 2 mm off the corneal ring was performed with use of a syringe for insulin injection.
To the Y27632 treatment group, 50 μL of the 50 μM Y27632 solution was intravitreally injected. Since the chick eyeball volume is about 1 mL, the final concentration of Y27632 in the eye was about 2.5 μM. To a control group not treated with Y27632, 50 μL of saline was intravitreally injected.
To the hydroxyfasudil treatment group, 20 μL of a diluted hydroxyfasudil solution prepared by diluting 1 μL of the 1 mM hydroxyfasudil solution to 20 μL was intravitreally injected. Since the chick eyeball volume is about 1 mL, the final concentration of hydroxyfasudil in the eye was about 1 μM. To a control group not treated with hydroxyfasudil, 20 μL of saline was intravitreally injected.
(§2) Four weeks after the induction of myopia, the chicks were sacrificed. The eyeballs were enucleated and the right eyeball and the left eyeball were measured for the size with a caliper. The degree of axial myopia was evaluated based on the axial length and the greatest transverse diameter. The differences of the axial length and the greatest transverse diameter between the right eye and the left eye were calculated to indicate the degree of myopia. Between the groups treated with the above-mentioned drugs and the respective control groups, the degree of myopia induction was compared.

[4] = system: chicken model of form-deprivation myopia; assay: Axial length suppression test with chicken model of form-deprivation myopia (II), ophthalmic instillation; assay type: in vivo, chicks (white leghorn); settings: hydroxyfasudil 500 nmol/1000 μL, 1 drop (about 5 μl) instilled once daily for 4 weeks, N = 10, * P < 0.05, t-test vs control
Source text: as §1, with “Chicken models of form-deprivation myopia were made in the same manner as in Example 1. That is, chicks” for “Chicks”
As a Rho kinase inhibitor, hydroxyfasudil hydrochloride (made by SIGMA; see the above formula (III); hereinafter, abbreviated to “hydroxyfasudil”) was used. Hydroxyfasudil was dissolved in BSS Plus (registered trademark, made by Alcon) so that the concentration was 10 mM, and 50 μL of this solution was diluted with saline to 1000 μL. A hydroxyfasudil solution at a concentration of 500 nmol/1000 μL was thus prepared.
To chicks to which myopia was being induced by the mask, hydroxyfasudil was instilled once daily for 4 weeks. Specifically, 1 drop (about 5 μl) of the above-mentioned hydroxyfasudil solution was instilled with use of a syringe with needle for insulin subcutaneous administration, “Low Dose” 30 G (made by Becton, Dickinson and Company). The instillation was performed to the right eye and the left eye.
To the control, BSS Plus was intravitreally injected once a week (every 7 days). Specifically, the intravitreal injection was performed to a superotemporal site about 3 mm off the corneal ring avoiding cartilage tissue of the lens and sclera with use of the above-mentioned “Low Dose”. The injection to the right eye and the left eye was performed 4 times in total.
as §2, with “right eyeballs” for “right eyeball”, “left eyeballs” for “left eyeball”, “the group” for “the groups”, “with hydroxyfasudil” for “with the above-mentioned drugs”, “the” for “the respective”, “control group,” for “control groups,”

[5] = system: myopia; settings: 2-year clinical trial, children aged 8 to 12; cited from earlier work
[6] = system: form-deprivation myopia; settings: animal experiment level; cited from earlier work

Structure (SMILES): CN1[C@@H]2CC[C@H]1C[C@@H](OC(=O)C(CO)c1ccccc1)C2 (stereo partly shown) [Atropine]
- Axial length extension [1]: suppresses axial length extension
- Progress of myopia [2]: statistically significant inhibition of the progress of myopia

Structure (SMILES): O=S(=O)(c1cccc2c(O)nccc12)N1CCCNCC1 [Hydroxyfasudil, 1-(1-hydroxy-5-isoquinolinesulfonyl)homopiperazine]
- Axial length, average right-left difference [3]: 0.37* mm
- Greatest transverse diameter, average right-left difference [3]: 0.48* mm
- Axial length, average right-left difference ([3]; listed as hydroxyfasudil): significantly reduced
- Greatest transverse diameter, average right-left difference ([3]; listed as hydroxyfasudil): significantly reduced
- Axial length, average right-left difference [4]: 0.61* mm
- Greatest transverse diameter, average right-left difference [4]: 0.91* mm
- Axial length, average right-left difference ([4]; listed as hydroxyfasudil): significantly reduced
- Greatest transverse diameter, average right-left difference ([4]; listed as hydroxyfasudil): significantly reduced

Structure (SMILES): CN1CCN(CC(=O)N2c3ccccc3C(=O)Nc3cccnc32)CC1 [Pirenzepine]
- Accommodative myopia (refraction of the lens) [5]: significant difference
- Axial length [5]: no significant difference
- Form-deprivation myopia (axial length extension) [6]: prevented form-deprivation myopia
